Data from paper PMC5882690, “Mechanical characteristics of beta sheet-forming peptide hydrogels are dependent on peptide sequence, concentration and buffer composition” (Royal Society Open Science, 2018).
Where a SMILES comes first, the peptide text is derived from it.

Experiments:
[1] = Fibre width of dried SAP hydrogels by scanning electron microscopy; type: physicochemical; settings: SEM of critical-point-dried hydrogel, 15 mg ml^-1 in Tris–NaCl, ionic strength 140 mM, pH 7.2–8.0, assembled overnight; 25 fibre widths per picture, ImageJ; mean ± SD
Method: Nanofibrillar structure of SAP hydrogels was formed for scanning electron microscopy (SEM) (Zeiss SUPRA® 40VP) at a concentration of 15 mg ml^−1 in Tris–NaCl buffer to a final ionic strength of 140 mM and a final pH of 7.2–8.0, as described in table 1. SAP hydrogels were assembled overnight. Self-assembly was apparent due to the gelation and β-sheet formation of the fibrillar structure as described by Aggeli et al. and Carrick et al. (by circular dichroism, Fourier transform infrared spectroscopy and transmission electron microscopy) and was further confirmed in the present study for P11-4 and P11-8 (see electronic supplementary material, figures S4, S6 and S7). SAP hydrogels were fixed with a glutaraldehyde solution (4% in borate buffer, using 0.1 ml per 0.1 ml peptide hydrogel) for 24 h. Gels were then dehydrated by increasing ethanol concentration in steps (25%, 50%, 60%, 70%, 80%, 90%, 100% ethanol) at 15 min intervals. The last step (100% ethanol) was repeated three times. Afterwards, critical point drying (Balzers Union, CPD020) was applied to stabilize the natural three-dimensional network structure. Finally, the network structures were glued on an SEM stub with carbon tape and sputter coated with 2.5 nm gold–palladium (Thermo VG Scientific, Polaron, SC7620). […] Fibre diameters were analysed with IMAGEJ software. Twenty-five fibre widths were measured for each picture.

[2] = Oscillatory time sweep (hydrogel stiffness at t = 100 min, gelation speed); type: physicochemical; settings: for Stiffness (storage modulus G′ at t = 100 min) / Speed (gelation speed, dG′/dt 5–10 min): time sweep, mean ± SD
Method: Dynamic oscillatory amplitude sweeps up to 150% strain were performed at 37°C using an Anton Paar MCR301 rheometer equipped with a 10 mm diameter stainless steel parallel plate geometry at a 0.9 mm measuring gap. The amplitude sweep tests were performed to measure storage moduli (G′) within the linear viscoelastic region. Calculations of the gel breaking points (yield points) were performed with MATLAB depending on the different peptide concentrations. Therefore, the yield strain was defined as the point where G′ is less than 95% of its original value. Oscillatory time sweep experiments were performed to study the gelation speed and hydrogel stiffness. Time sweeps up to 150 min measuring time using a frequency of 1 rad s^−1 and amplitude gamma of 0.05% were used. SAP hydrogel stiffness was determined after the equilibrium of the storage modulus (G′) was reached (t = 100 min). To determine the gelation speed, the slope of increasing storage modulus over time was calculated in the interval from t = 5 to 10 min after placing peptide solutions onto the rheometer.
To study the influence of divalent ions and different media on SAP hydrogel stiffness, gelation speed and gel breaking points (yield points), SAPs were prepared at a concentration of 15 mg ml^−1 in the different media, Tris–NaCl, Tris–MgSO4, DMEM or artificial saliva, according to table 1. All experiments were done at least in duplicate. Statistical evaluation was performed with GRAPHPAD PRISM version 6.0 based on a one-way ANOVA test followed by Tukey's multiple comparison test.

[3] = SAP hydrogel dissolution in PBS or TYSB medium (peptide content of supernatant); type: physicochemical; settings: 37°C, 20 mg ml^-1 P11-4, 15 mg ml^-1 others, Qubit Protein Assay, mean ± SD, n = 3
Method: (§1) SAP hydrogel dissolution and degradation properties of the peptides in the presence and absence of neutrophilic elastase and microorganisms were measured by determining the peptide content of the supernatant. Therefore, SAPs were assembled in PBS at concentrations of 20 mg ml^−1 for P11-4 and 15 mg ml^−1 for P11-8, P11-13/14 and P11-28/29. The assay was performed in a 96-well plate with gel volumes of 100 µl well^−1. 86 units ml^−1 elastase (Innovative Research, USA) (100 µg ml^−1) were added to the assembled peptides in PBS solution. After 24 h incubation at 37°C and 5% CO2, 10 µl of the supernatant was sterilely removed after 24 and 168 h and measured indirectly by monomeric peptide concentration in the supernatant using the Qubit® Protein Assay (Q33211; Thermo Fisher; fluorescence at 485/590 nm) and transferred back for the remainder of the experiment allowing peptide hydrogel degradation measurement without disturbing the hydrogel to buffer fluid balance. The measurements are based on the fact that degraded peptides cause disassembly of the fibrils, as assembly rules are no longer given, resulting in an increase in monomeric SAP in solution. SAP concentrations were calculated based on respective peptide standard curves. For data analysis, SAP concentrations measured in the supernatant were calculated as a percentage of the specific starting concentrations of each peptide system. Statistical analysis was done using a two-way ANOVA followed by Sidak's multiple comparison test.
The stability of the hydrogels versus bacterial degradation was tested by the exposure to the bacterial strains Streptococcus mutans (S. mutans), Pseudomonas aeruginosa (P. aeruginosa) and Staphylococcus aureus (S. aureus; all from Leibniz-Institut DSMZ GmbH). Therefore, the bacterial strains were applied (10^6 CFU ml^−1) on the top of each gel (20 mg ml^−1 for P11-4 and 15 mg ml^−1 for P11-8, P11-13/14 and P11-28/29) in their respective media (Neurobasal medium for P. aeruginosa (Thermo Fisher), Tryptic Soy Broth (TYSB) medium for S. mutans and S. aureus). After 1 and 7 days of incubation at 37°C, 10 µl of each supernatant was analysed subsequent to centrifugation of the samples using the Qubit® Protein Assay. Calculations were performed as described previously for the elastase degradation study. Statistical analysis was performed with Graphpad Prism version 6.0 using a two-way ANOVA followed by Dunnett's multiple comparison test.

[4] = molecular target: T1, human neutrophil elastase (Homo sapiens, UniProt P08246); test: SAP hydrogel degradation by human neutrophil elastase; type: in vitro ADME; settings: human neutrophil elastase 100 µg ml^-1 (86 units ml^-1) in PBS, 37°C, 5% CO2, 20 mg ml^-1 P11-4, 15 mg ml^-1 others, Qubit Protein Assay, mean ± SD, n = 3
T1 construct: purchased Innovative Research, USA
T1 sequence (P08246 30-267): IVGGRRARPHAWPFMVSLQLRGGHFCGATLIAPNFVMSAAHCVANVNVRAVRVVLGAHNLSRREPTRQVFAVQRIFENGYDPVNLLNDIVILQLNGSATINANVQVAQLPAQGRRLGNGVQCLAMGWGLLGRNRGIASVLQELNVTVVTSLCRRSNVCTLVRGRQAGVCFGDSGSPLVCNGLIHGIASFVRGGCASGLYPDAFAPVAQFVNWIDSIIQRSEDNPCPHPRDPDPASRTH
Method: as §1

[5] = 15 mg ml^-1, artificial saliva, n = 3
[6] = 15 mg ml^-1, serum-free DMEM, n = 3
[7] = artificial saliva versus DMEM, 15 mg ml^-1

CC(=O)N[C@@H](CCC(N)=O)C(=O)N[C@@H](CCC(N)=O)C(=O)N[C@@H](CCCNC(=N)N)C(=O)N[C@@H](Cc1ccccc1)C(=O)N[C@@H](CCC(=O)O)C(=O)N[C@@H](Cc1c[nH]c2ccccc12)C(=O)N[C@@H](CCC(=O)O)C(=O)N[C@@H](Cc1ccccc1)C(=O)N[C@@H](CCC(=O)O)C(=O)N[C@@H](CCC(N)=O)C(=O)N[C@@H](CCC(N)=O)C(N)=O [P11-4, CH3CO-QQRFEWEFEQQ-NH2] (Ac-QQRFEWEFEQQ-NH2)
mean fibre width [1]: 32 ± 6.6 nm
Stiffness (storage modulus G′ at t = 100 min) ([2]; 15 mg ml^-1, Tris–MgSO4, 1 rad s^-1, 37°C, n = 3): 9.5±2.7 kPa
Speed (gelation speed, dG′/dt 5–10 min) ([2]; 15 mg ml^-1, Tris–MgSO4): 0.8±0.1 G`/min
Stiffness (storage modulus G′ at t = 100 min) ([2]; 15 mg ml^-1, Tris–NaCl, 1 rad s^-1, 37°C, n = 3): 5.0± 2.1 kPa
Speed (gelation speed, dG′/dt 5–10 min) ([2]; 15 mg ml^-1, Tris–NaCl): 1.6± 0.6 G`/min
Speed (gelation speed, dG′/dt 5–10 min) [2, 5]: 2.3 ± 0.9 G`/min
Stiffness (storage modulus G′ at t = 100 min) [2, 5]: 4.9 ± 1.6 kPa
Speed (gelation speed, dG′/dt 5–10 min) [2, 6]: 1.3 ± 0.4 G`/min
Stiffness (storage modulus G′ at t = 100 min) [2, 6]: 0.4± 0.01 kPa
factor of increase of gelation (speed) in artificial saliva [2, 7]: 1.8
factor of increase of hydrogel stiffness if prepared with artificial saliva [2, 7]: 12
relative peptide amount in supernatant (% of peptide starting concentration) ([3]; Medium (TYSB), 1 d): 0.4± 0.1%
relative peptide amount in supernatant (% of peptide starting concentration) ([3]; Medium (TYSB), 7 d): 4.6± 2.5%
relative peptide amount in supernatant (% of peptide starting concentration) ([3]; PBS, 1 d, gel assembled in PBS, 100 µl, fluorescence 485/590 nm): 10.6± 5.7%
relative peptide amount in supernatant (% of peptide starting concentration) ([3]; PBS, 7 d, gel assembled in PBS, 100 µl, fluorescence 485/590 nm): 9.4± 4.4%
relative peptide amount in supernatant (% of peptide starting concentration) ([4]; 1 d): 14.7± 2.8%
relative peptide amount in supernatant (% of peptide starting concentration) ([4]; 7 d): 12.8± 5.8%
